Assay results as given in PubChem BioAssay (NCI).
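Test compounds were applied to cells in 96-well plates for 48 hours at 5 doses. GI50: concentration for 50% inhibition of growth. TGI denotes the concentration required for complete inhibition of growth.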

Experiments:
Assay in all cases: NCI anticancer screen, dose series, 48 h; in the data active means GI50 below about 0.43 µM; inactive means the rest
OVCAR-3 ovarian = test system: OVCAR-3 ovarian
SF-295 CNS = test system: SF-295 CNS
OVCAR-5 ovarian = test system: OVCAR-5 ovarian
RXF-631 renal = test system: RXF-631 renal
HL-60(TB) leukemia = test system: HL-60(TB) leukemia
CCRF-CEM leukemia = test system: CCRF-CEM leukemia
HCC-2998 colon = test system: HCC-2998 colon
ACHN renal = test system: ACHN renal
HT29 colon = test system: HT29 colon
NCI-H460 lung = test system: NCI-H460 lung
UACC-62 melanoma = test system: UACC-62 melanoma
LXFL 529 NSCLC = test system: LXFL 529 NSCLC
NCI-H226 lung = test system: NCI-H226 lung
DLD-1 colon = test system: DLD-1 colon
SNB-19 CNS = test system: SNB-19 CNS
HOP-62 NSCLC = test system: HOP-62 NSCLC
UACC-257 melanoma = test system: UACC-257 melanoma
A498 renal = test system: A498 renal
IGROV1 ovarian = test system: IGROV1 ovarian
MOLT-4 leukemia = test system: MOLT-4 leukemia
LOX IMVI melanoma = test system: LOX IMVI melanoma
SK-MEL-5 melanoma = test system: SK-MEL-5 melanoma
HCT-116 colon = test system: HCT-116 colon
NCI-H23 lung = test system: NCI-H23 lung
A549 NSCLC = test system: A549 NSCLC
UO-31 renal = test system: UO-31 renal
HOP-92 NSCLC = test system: HOP-92 NSCLC
SK-MEL-28 melanoma = test system: SK-MEL-28 melanoma
SF-268 CNS = test system: SF-268 CNS
786-0 renal = test system: 786-0 renal
OVCAR-8 ovarian = test system: OVCAR-8 ovarian
HCT-15 colon = test system: HCT-15 colon
U251 CNS = test system: U251 CNS
M14 melanoma = test system: M14 melanoma
MALME-3M melanoma = test system: MALME-3M melanoma
RPMI-8226 leukemia = test system: RPMI-8226 leukemia
KM20L2 colon = test system: KM20L2 colon
K-562 leukemia = test system: K-562 leukemia
TK-10 renal = test system: TK-10 renal
SK-OV-3 ovarian = test system: SK-OV-3 ovarian
CAKI-1 renal = test system: CAKI-1 renal
OVCAR-4 ovarian = test system: OVCAR-4 ovarian
COLO 205 colon = test system: COLO 205 colon
SN12C renal = test system: SN12C renal
DMS 114 small cell lung = test system: DMS 114 small cell lung
DMS 273 small cell lung = test system: DMS 273 small cell lung
HOP-18 NSCLC = test system: HOP-18 NSCLC
SR leukemia = test system: SR leukemia
SW-620 colon = test system: SW-620 colon
M19-MEL melanoma = test system: M19-MEL melanoma
NCI-H522 lung = test system: NCI-H522 lung
RXF 393 renal = test system: RXF 393 renal
SK-MEL-2 melanoma = test system: SK-MEL-2 melanoma
SF-539 CNS = test system: SF-539 CNS
KM12 colon = test system: KM12 colon
EKVX NSCLC = test system: EKVX NSCLC
SNB-78 CNS = test system: SNB-78 CNS
SNB-75 CNS = test system: SNB-75 CNS

OCC12C=CC(C1)c1ccccc12 (stereo unspecified)
> 100 µM: TGI (OVCAR-3 ovarian) | TGI (SF-295 CNS) | TGI (OVCAR-5 ovarian) | TGI (RXF-631 renal) | TGI (HL-60(TB) leukemia) | TGI (CCRF-CEM leukemia) | TGI (HCC-2998 colon) | TGI (ACHN renal) | TGI (HT29 colon) | TGI (NCI-H460 lung) | TGI (UACC-62 melanoma) | TGI (LXFL 529 NSCLC) | TGI (NCI-H226 lung) | TGI (DLD-1 colon) | TGI (SNB-19 CNS) | TGI (HOP-62 NSCLC) | TGI (UACC-257 melanoma) | TGI (A498 renal) | TGI (IGROV1 ovarian) | TGI (MOLT-4 leukemia) | TGI (LOX IMVI melanoma) | TGI (SK-MEL-5 melanoma) | TGI (HCT-116 colon) | TGI (NCI-H23 lung) | TGI (A549 NSCLC) | TGI (UO-31 renal) | TGI (HOP-92 NSCLC) | TGI (SK-MEL-28 melanoma) | TGI (SF-268 CNS) | TGI (786-0 renal) | TGI (OVCAR-8 ovarian) | TGI (HCT-15 colon) | TGI (U251 CNS) | TGI (M14 melanoma) | TGI (MALME-3M melanoma) | TGI (RPMI-8226 leukemia) | TGI (KM20L2 colon) | TGI (K-562 leukemia) | TGI (TK-10 renal) | TGI (SK-OV-3 ovarian) | TGI (CAKI-1 renal) | TGI (OVCAR-4 ovarian) | TGI (COLO 205 colon) | TGI (SN12C renal) | TGI (DMS 114 small cell lung) | TGI (DMS 273 small cell lung) | TGI (HOP-18 NSCLC) | TGI (SR leukemia) | TGI (SW-620 colon) | TGI (M19-MEL melanoma)

COc1cc(NCC(C#N)C#N)ccc1N=Nc1ccc(Cl)cc1
71.7 µM: TGI (IGROV1 ovarian)
35.9 µM: TGI (SR leukemia)
52.5 µM: TGI (UO-31 renal)
68.5 µM: TGI (EKVX NSCLC)
80.1 µM: TGI (SK-MEL-28 melanoma)
36.4 µM: TGI (HOP-62 NSCLC)
98.8 µM: TGI (SNB-78 CNS)
23.8 µM: TGI (UACC-62 melanoma)
62.2 µM: TGI (HCT-116 colon)
45.9 µM: TGI (SK-MEL-5 melanoma)
90.1 µM: TGI (SNB-75 CNS)
79 µM: TGI (RXF 393 renal)
85.4 µM: TGI (DLD-1 colon)
44.4 µM: TGI (OVCAR-5 ovarian)
33.5 µM: TGI (M14 melanoma)
92.3 µM: TGI (RPMI-8226 leukemia)
41.4 µM: TGI (DMS 273 small cell lung)
55.9 µM: TGI (M19-MEL melanoma)
48.2 µM: TGI (DMS 114 small cell lung)
47.4 µM: TGI (HCT-15 colon)
30.5 µM: TGI (HT29 colon)
83.8 µM: TGI (SK-OV-3 ovarian)
31.7 µM: TGI (COLO 205 colon)
52.9 µM: TGI (NCI-H460 lung)
38.4 µM: TGI (OVCAR-3 ovarian)
65.4 µM: TGI (NCI-H23 lung)
61.6 µM: TGI (SNB-19 CNS)
36.1 µM: TGI (LOX IMVI melanoma)
39.8 µM: TGI (MOLT-4 leukemia)
61.9 µM: TGI (CCRF-CEM leukemia)
71.4 µM: TGI (MALME-3M melanoma)
35.1 µM: TGI (HCC-2998 colon)
39.7 µM: TGI (HOP-18 NSCLC)
51.6 µM: TGI (SF-539 CNS)
37 µM: TGI (U251 CNS)
33.4 µM: TGI (KM12 colon)
51.7 µM: TGI (LXFL 529 NSCLC)
51.3 µM: TGI (SF-295 CNS)
31.9 µM: TGI (NCI-H522 lung)
50.5 µM: TGI (K-562 leukemia)
29.3 µM: TGI (KM20L2 colon)
41.9 µM: TGI (SW-620 colon)
46.9 µM: TGI (SK-MEL-2 melanoma)
> 100 µM: TGI (RXF-631 renal) | TGI (ACHN renal) | TGI (NCI-H226 lung) | TGI (A498 renal) | TGI (A549 NSCLC) | TGI (SF-268 CNS) | TGI (OVCAR-8 ovarian) | TGI (OVCAR-4 ovarian) | TGI (SN12C renal)
73 µM: TGI (TK-10 renal)
48.8 µM: TGI (786-0 renal)

CCOC(=O)[CH-]C(=O)C12CC3CC(CC(C3)C1)C2.CCOC(=O)[CH-]C(=O)C12CC3CC(CC(C3)C1)C2.CC[O-].CC[O-].[Ti+4]
> 100 µM: TGI (OVCAR-3 ovarian) | TGI (SF-295 CNS) | TGI (RXF-631 renal) | TGI (HL-60(TB) leukemia) | TGI (CCRF-CEM leukemia) | TGI (ACHN renal) | TGI (HT29 colon) | TGI (NCI-H460 lung) | TGI (NCI-H522 lung) | TGI (UACC-62 melanoma) | TGI (LXFL 529 NSCLC) | TGI (DLD-1 colon) | TGI (SNB-19 CNS) | TGI (HOP-62 NSCLC) | TGI (UACC-257 melanoma) | TGI (A498 renal) | TGI (IGROV1 ovarian) | TGI (SF-539 CNS) | TGI (MOLT-4 leukemia) | TGI (LOX IMVI melanoma) | TGI (SK-MEL-5 melanoma) | TGI (KM12 colon) | TGI (HCT-116 colon) | TGI (NCI-H23 lung) | TGI (A549 NSCLC) | TGI (UO-31 renal) | TGI (HOP-92 NSCLC) | TGI (SK-MEL-28 melanoma) | TGI (SF-268 CNS) | TGI (786-0 renal) | TGI (OVCAR-8 ovarian) | TGI (U251 CNS) | TGI (M14 melanoma) | TGI (MALME-3M melanoma) | TGI (RPMI-8226 leukemia) | TGI (KM20L2 colon) | TGI (K-562 leukemia) | TGI (TK-10 renal) | TGI (SK-OV-3 ovarian) | TGI (CAKI-1 renal) | TGI (OVCAR-4 ovarian) | TGI (COLO 205 colon) | TGI (SN12C renal) | TGI (DMS 114 small cell lung) | TGI (SNB-78 CNS) | TGI (DMS 273 small cell lung) | TGI (HOP-18 NSCLC) | TGI (SR leukemia) | TGI (SW-620 colon) | TGI (M19-MEL melanoma) | TGI (SNB-75 CNS)
inactive: GI50 (OVCAR-3 ovarian) > 100 µM | GI50 (SF-295 CNS) > 100 µM | GI50 (RXF-631 renal) > 100 µM | GI50 (HL-60(TB) leukemia) > 100 µM | GI50 (CCRF-CEM leukemia) > 100 µM | GI50 (ACHN renal) > 100 µM | GI50 (HT29 colon) > 100 µM | GI50 (NCI-H460 lung) > 100 µM | GI50 (NCI-H522 lung) > 100 µM | GI50 (UACC-62 melanoma) > 100 µM | GI50 (LXFL 529 NSCLC) > 100 µM | GI50 (DLD-1 colon) > 100 µM | GI50 (SNB-19 CNS) > 100 µM | GI50 (HOP-62 NSCLC) > 100 µM | GI50 (UACC-257 melanoma) > 100 µM | GI50 (A498 renal) > 100 µM | GI50 (IGROV1 ovarian) > 100 µM | GI50 (SF-539 CNS) > 100 µM | GI50 (MOLT-4 leukemia) > 100 µM | GI50 (LOX IMVI melanoma) > 100 µM | GI50 (SK-MEL-5 melanoma) > 100 µM | GI50 (KM12 colon) > 100 µM | GI50 (HCT-116 colon) > 100 µM | GI50 (NCI-H23 lung) > 100 µM | GI50 (A549 NSCLC) > 100 µM | GI50 (UO-31 renal) > 100 µM | GI50 (HOP-92 NSCLC) > 100 µM | GI50 (SK-MEL-28 melanoma) > 100 µM | GI50 (SF-268 CNS) > 100 µM | GI50 (786-0 renal) > 100 µM | GI50 (OVCAR-8 ovarian) > 100 µM | GI50 (U251 CNS) > 100 µM | GI50 (M14 melanoma) > 100 µM | GI50 (MALME-3M melanoma) > 100 µM | GI50 (RPMI-8226 leukemia) > 100 µM | GI50 (KM20L2 colon) > 100 µM | GI50 (K-562 leukemia) > 100 µM | GI50 (TK-10 renal) > 100 µM | GI50 (SK-OV-3 ovarian) > 100 µM | GI50 (CAKI-1 renal) > 100 µM | GI50 (OVCAR-4 ovarian) > 100 µM | GI50 (COLO 205 colon) > 100 µM | GI50 (SN12C renal) > 100 µM | GI50 (DMS 114 small cell lung) > 100 µM | GI50 (SNB-78 CNS) > 100 µM | GI50 (DMS 273 small cell lung) > 100 µM | GI50 (HOP-18 NSCLC) > 100 µM | GI50 (SR leukemia) > 100 µM | GI50 (SW-620 colon) > 100 µM | GI50 (M19-MEL melanoma) > 100 µM | GI50 (SNB-75 CNS) 36.9 µM
